US10759794B2, “2-phenyl-3-(piperazinomethyl)imidazo[1,2-A]pyridine derivatives as blockers of task-1 and task-2 channels, for the treatment of sleep-related breathing disorders” (BAYER PHARMA AKTIENGESELLSCHAFT, priority 2015, dated 2020)

What was measured:
Format in all cases: cell-based
human TASK-3 [1] = target: T1, human TASK-3 (Homo sapiens (Human), UniProt Q9NPC2); assay: Inhibition of recombinant TASK-3 in stably transfected CHO cells (voltage-sensitive dye, FLIPR)
Procedure: (§1) B-2. Inhibition of Recombinant TASK-1 and TASK-3 In Vitro
(§2) The investigations on the inhibition of the recombinant TASK-1 and TASK-3 channels were carried out using stably transfected CHO cells. Here, the compounds according to the invention were tested with administration of 40 mM of potassium chloride in the presence of a voltage-sensitive dye using the method described in detail in the following references [Whiteaker et al., Validation of FLIPR membrane potential dye for high-throughput screening of potassium channel modulators, J. Biomol. Screen. 6 (5), 305-312 (2001); Molecular Devices FLIPR Application Note: Measuring membrane potential using the FLIPR® membrane potential assay kit on Fluorometric Imaging Plate Reader (FLIPR®) systems, http://www.moleculardevices.com/reagents-supplies/assay-kits/ion-channels/flipr-membrane-potential-assay-kits]. The activity of the test substances was determined as their ability to inhibit a depolarization induced in the recombinant cells by 40 mM potassium chloride. The concentration which can block half of this depolarization is referred to as IC50.

human TASK-1 [2] = target: T2, human TASK-1 (Homo sapiens (Human), UniProt O14649); assay: Two-electrode voltage clamp analysis of human TASK-1 channels in Xenopus laevis oocytes
T2 sequence (O14649 whole entry): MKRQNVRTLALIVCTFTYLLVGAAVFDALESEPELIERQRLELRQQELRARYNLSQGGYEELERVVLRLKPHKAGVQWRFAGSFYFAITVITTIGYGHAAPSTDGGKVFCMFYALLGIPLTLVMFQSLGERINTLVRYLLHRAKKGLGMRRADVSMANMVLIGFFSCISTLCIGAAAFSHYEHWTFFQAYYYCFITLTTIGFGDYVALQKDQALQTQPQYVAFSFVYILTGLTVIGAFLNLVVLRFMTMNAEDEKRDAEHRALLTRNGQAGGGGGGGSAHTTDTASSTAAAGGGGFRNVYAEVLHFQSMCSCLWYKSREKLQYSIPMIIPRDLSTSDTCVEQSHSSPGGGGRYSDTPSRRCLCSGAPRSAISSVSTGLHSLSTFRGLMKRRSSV
Procedure: (§3) B-1. In Vitro Electrophysiological Analysis of the Human TASK-1 and TASK-3 Channels Via Two-Electrode Voltage Clamp Technique in Xenopus laevis Oocytes
(§4) Xenopus laevis oocytes were selected as described elsewhere in an exemplary manner [Decher et al., FEBS Lett. 492, 84-89 (2001)]. Subsequently, the oocytes were injected with 0.5-5 ng of a cRNA solution coding for TASK-1 or TASK-3. For the electrophysiological analysis of the channel proteins expressed in the oocytes, the two-electrode voltage clamp technique [Stühmer, Methods Enzymol. 207, 319-339 (1992)] was used. The measurements were carried out as described [Decher et al., FEBS Lett. 492, 84-89 (2001)] at room temperature (21-22° C.) using a Turbo TEC 10CD amplifier (NPI), recorded at 2 kHz and filtered with 0.4 kHz. Substance administration was performed using a gravitation-driven perfusion system. Here, the oocyte is located in a measuring chamber and exposed to the solvent stream of 10 ml/min. The level in the measuring chamber is monitored and regulated by sucking off the solution using a peristaltic pump.

human TASK-3 [3] = target: T1, human TASK-3; assay: Two-electrode voltage clamp analysis of human TASK-3 channels in Xenopus laevis oocytes
Procedure: as §3, §4

human TASK-1 [4] = target: T2, human TASK-1; assay: Inhibition of recombinant TASK-1 in stably transfected CHO cells (voltage-sensitive dye, FLIPR)
Procedure: as §1, §2

[5] = depolarization induced by 40 mM potassium chloride, Table 2A
[6] = Xenopus laevis oocytes, two-electrode voltage clamp, room temperature, Table 1A
[7] = 40 mM potassium chloride, comparative compounds, Table 2B
[8] = oocytes, voltage clamp, Table 1B
[9] = oocytes, voltage clamp, comparative compounds, Table 1B

T1 sequence (Q9NPC2 whole entry): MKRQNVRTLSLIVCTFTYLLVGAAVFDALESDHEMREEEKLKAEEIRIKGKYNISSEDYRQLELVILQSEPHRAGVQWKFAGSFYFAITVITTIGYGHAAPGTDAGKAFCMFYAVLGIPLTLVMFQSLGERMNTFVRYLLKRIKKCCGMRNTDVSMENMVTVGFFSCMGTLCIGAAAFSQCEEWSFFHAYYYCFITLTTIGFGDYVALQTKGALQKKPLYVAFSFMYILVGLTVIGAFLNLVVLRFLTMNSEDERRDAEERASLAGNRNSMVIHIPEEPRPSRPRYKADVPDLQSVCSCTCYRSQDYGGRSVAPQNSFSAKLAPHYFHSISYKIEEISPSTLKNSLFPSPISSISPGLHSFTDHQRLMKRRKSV

SMILES | IC50 (human TASK-3 [1]; [5]) [nM] | IC50 (human TASK-1 [4]; [5]) [nM] | further results
CC(C)c1ccc(-c2nc3ccccn3c2CN2CCN(C(=O)c3ccccc3F)CC2)cc1 [Example 53] | 1000 | 2840 | –
Cc1ccc(-c2nc3ccccn3c2CN2CCN(C(=O)C3CCCCC3)CC2)cc1 [Example 57] | 2900 | 962 | –
COc1ccccc1C(=O)N1CCN(Cc2c(-c3ccc(C)cc3)nc3ccccn23)CC1 [Example 58] | 1900 | 1910 | –
N#Cc1ccc(-c2nc3ccccn3c2CN2CCN(C(=O)c3ccccc3F)CC2)cc1 [Example 60] | 4600 | 1700 | –
COc1cccc(C(=O)N2CCN(Cc3c(-c4ccc(C#N)cc4)nc4ccccn34)CC2)n1 [Example 61] | 1400 | 2050 | –
N#Cc1ccc(-c2nc3ccccn3c2CN2CCN(C(=O)C3CCCC3)CC2)cc1 [Example 62] | 3100 | 1200 | –
N#Cc1ccc(-c2nc3ccccn3c2CN2CCN(C(=O)C3CCCCC3)CC2)cc1 [Example 63] | 1600 | 1300 | –
CC(C)(C)c1ccc(-c2nc3ccccn3c2CN2CCN(C(=O)C3CCCC3)CC2)cc1 [Example 66] | 830 | 1500 | –
O=C(c1ccccc1Cl)N1CCN(Cc2c(-c3ccc(Cl)cc3)nc3ccc(-c4ccccc4)cn23)CC1 [WO 2014/187922 Example 64, reference compound] | – | – | IC50 (human TASK-3 [1]; [7]): 2200 nM; IC50 (human TASK-1 [4]; [7]): 30000 nM
O=C(c1cccc(F)c1)N1CCN(Cc2c(-c3ccc(Cl)cc3)nc3ccc(C4CC4)cn23)CC1 [WO 2014/187922 Example 178, reference compound] | – | – | IC50 (human TASK-3 [1]; [7]): 4800 nM; IC50 (human TASK-1 [4]; [7]): 30000 nM
O=C(c1ccncc1)N1CCN(Cc2c(-c3ccc(Cl)cc3)nc3ccc(C4CC4)cn23)CC1 [WO 2014/187922 Example 196, reference compound] | – | – | IC50 (human TASK-3 [1]; [7]): 30000 nM; IC50 (human TASK-1 [4]; [7]): 30000 nM
COc1cccc(-c2nc3ccccn3c2CN2CCN(C(=O)C3CCC3)CC2)c1 [WO 2014/187922 Example 208, reference compound] | – | – | IC50 (human TASK-3 [1]; [7]): 30000 nM; IC50 (human TASK-1 [4]; [7]): 30000 nM
O=C(c1cnccn1)N1CCN(Cc2c(-c3ccc(Cl)cc3)nc3ccc(C4CC4)cn23)CC1 [WO 2014/187922 Example 263, reference compound] | – | – | IC50 (human TASK-3 [1]; [7]): 5700 nM; IC50 (human TASK-1 [4]; [7]): 30000 nM
O=C(c1ccccc1Cl)N1CCN(Cc2c(-c3ccc(Cl)cc3)nc3ccc(-c4ccccc4)cn23)CC1 [drawing 122] | – | – | inhibition at 1 µM (human TASK-1 [2]; [8]): 6.3 ± 1.4%; inhibition at 10 µM (human TASK-1 [2]; [8]): 16.9 ± 3.2%; IC50 (human TASK-1 [2]; [9]): > 30000 nM; inhibition at 1 µM (human TASK-3 [3]; [8]): 9.3 ± 3.4%; inhibition at 10 µM (human TASK-3 [3]; [8]): 19.4 ± 4.6%; IC50 (human TASK-3 [3]; [9]): > 30000 nM
O=C(c1cccc(F)c1)N1CCN(Cc2c(-c3ccc(Cl)cc3)nc3ccc(C4CC4)cn23)CC1 [drawing 123] | – | – | inhibition at 1 µM (human TASK-1 [2]; [8]): 30 ± 3.3%; inhibition at 10 µM (human TASK-1 [2]; [8]): 59.9 ± 1.7%; IC50 (human TASK-1 [2]; [9]): > 1000 nM; inhibition at 1 µM (human TASK-3 [3]; [8]): 29.7 ± 2.6%; inhibition at 10 µM (human TASK-3 [3]; [8]): 56.1 ± 4.6%; IC50 (human TASK-3 [3]; [9]): > 1000 nM
O=C(c1ccncc1)N1CCN(Cc2c(-c3ccc(Cl)cc3)nc3ccc(C4CC4)cn23)CC1 [drawing 124] | – | – | inhibition at 1 µM (human TASK-1 [2]; [8]): 47.2 ± 1.5%; inhibition at 10 µM (human TASK-1 [2]; [8]): 49.9 ± 3.3%; IC50 (human TASK-1 [2]; [9]): > 1000 nM; inhibition at 1 µM (human TASK-3 [3]; [8]): 12.1 ± 1.8%; inhibition at 10 µM (human TASK-3 [3]; [8]): 56.1 ± 2.3%; IC50 (human TASK-3 [3]; [9]): > 1000 nM
COc1cccc(-c2nc3ccccn3c2CN2CCN(C(=O)C3CCC3)CC2)c1 [drawing 125] | – | – | inhibition at 1 µM (human TASK-1 [2]; [8]): 49.6 ± 6.7%; inhibition at 10 µM (human TASK-1 [2]; [8]): 75 ± 3.5%; IC50 (human TASK-1 [2]; [9]): > 1000 nM; inhibition at 1 µM (human TASK-3 [3]; [8]): 34.6 ± 2.7%; inhibition at 10 µM (human TASK-3 [3]; [8]): 73.6 ± 3.7%; IC50 (human TASK-3 [3]; [9]): > 1000 nM
O=C(c1cnccn1)N1CCN(Cc2c(-c3ccc(Cl)cc3)nc3ccc(C4CC4)cn23)CC1 [drawing 126] | – | – | inhibition at 1 µM (human TASK-1 [2]; [8]): 27.7 ± 4.5%; inhibition at 10 µM (human TASK-1 [2]; [8]): 55.2 ± 1.7%; IC50 (human TASK-1 [2]; [9]): > 1000 nM; inhibition at 1 µM (human TASK-3 [3]; [8]): 8.1 ± 2.6%; inhibition at 10 µM (human TASK-3 [3]; [8]): 48.2 ± 4.3%; IC50 (human TASK-3 [3]; [9]): > 10000 nM

The remaining compounds from weak to strong by IC50 (human TASK-3 [1]; [5]), led by results:

IC50 (human TASK-3 [1]; [5]) [nM] | IC50 (human TASK-1 [4]; [5]) [nM] | SMILES | further results
750 | 1100 | CC(C)(C)c1ccc(-c2nc3ccccn3c2CN2CCN(C(=O)c3ccccc3F)CC2)cc1 [Example 65] | –
700 | 642 | Cc1ccc(-c2nc3ccccn3c2CN2CCN(C(=O)C3CCCC3)CC2)cc1 [Example 56] | –
560 | 1160 | COc1ccccc1C(=O)N1CCN(Cc2c(-c3ccc(F)cc3)nc3ccccn23)CC1 [Example 52] | –
450 | 510 | COc1cccc(C(=O)N2CCN(Cc3c(-c4ccc(C(C)(C)C)cc4)nc4ccccn34)CC2)n1 [Example 64] | –
430 | 800 | COc1cccc(C(=O)N2CCN(Cc3c(-c4ccc(C)cc4)nc4ccccn34)CC2)n1 [Example 59] | –
350 | 1800 | COc1ccc(F)c(C(=O)N2CCN(Cc3c(-c4ccc(C#N)cc4)nc4ccccn34)CC2)c1 [Example 70] | –
28 | 139 | COc1cccc(C(=O)N2CCN(Cc3c(-c4ccc(Cl)cc4)nc4ccccn34)CC2)n1 [Example 3, (4-{[2-(4-Chlorophenyl)imidazo [1,2-a]pyridin-3-yl]methyl}piperazin-1-yl)(6-methoxypyridin-2-yl)methanone] | IC50 (human TASK-1 [2]; [6]): 4.2 ± 0.6 nM; IC50 (human TASK-3 [3]; [6]): 27.9 ± 4 nM
20 | 63 | O=C(C1CCCC1)N1CCN(Cc2c(-c3ccc(Cl)cc3)nc3ccccn23)CC1 [Example 2, (4-{[2-(4-Chlorophenyl)imidazo [1,2-a]pyridin-3-yl]methyl}piperazin-1-yl)(cyclopentyl)methanone] | IC50 (human TASK-1 [2]; [6]): 2.8 ± 1.1 nM; IC50 (human TASK-3 [3]; [6]): 21.8 ± 2.1 nM
17 | 77 | O=C(C1CCCC1)N1CCN(Cc2c(-c3ccc(Br)cc3)nc3ccccn23)CC1 [Example 1, (4-{[2-(4-Bromophenyl)imidazo[,2-a]pyridin-3-yl]methyl}piperazin-1-yl)(cyclopentyl)methanone] | IC50 (human TASK-1 [2]; [6]): 7.9 ± 0.5 nM; IC50 (human TASK-3 [3]; [6]): 1.04 ± 0.23 nM
17 | 170 | COc1ccc(C)c(C(=O)N2CCN(Cc3c(-c4ccc(C(C)(C)C)cc4)nc4ccccn34)CC2)n1 [Example 73] | –
16 | 230 | COc1ccc(C)c(C(=O)N2CCN(Cc3c(-c4ccc(C#N)cc4)nc4ccccn34)CC2)n1 [Example 71] | –
11 | 66 | O=C(c1ccccc1F)N1CCN(Cc2c(-c3ccc(C4CC4)cc3)nc3ccccn23)CC1 [Example 69, (4-{[2-(4-Cyclopropylphenyl)imidazo[1,2-a]pyridin-3-yl]methyl}piperazin-1-yl)(2-fluorophenyl)methanone] | –
9.4 | 42 | O=C(c1cccc(OC(F)(F)F)n1)N1CCN(Cc2c(-c3ccc(Cl)cc3)nc3ccccn23)CC1 [Example 67, (4-{[2-(4-Chlorophenyl)imidazo [1,2-a]pyridin-3-yl]methyl}piperazin-1-yl) [6-(trifluoromethoxy)pyridin-2-yl]methanone] | –
9.1 | 67 | COc1ccc(C)c(C(=O)N2CCN(Cc3c(-c4ccc(Br)cc4)nc4ccccn34)CC2)n1 [Example 74] | –
5.2 | 93 | COc1ccc(F)c(C(=O)N2CCN(Cc3c(-c4ccc(Cl)cc4)nc4ccccn34)CC2)n1 [Example 68, (4-{[2-(4-Chlorophenyl)imidazo[1,2-a]pyridin-3-yl]methyl}piperazin-1-yl)(3-fluoro-6-methoxypyridin-2-yl)methanone] | –
3 | 71 | COc1ccc(C)c(C(=O)N2CCN(Cc3c(-c4ccc(Cl)cc4)nc4ccccn34)CC2)n1 [Example 72] | –
